Assay results reported in patent US6777204B1, “Receptor protein and method for diagnosing inflammatory diseases by using the same” (Asahi Kasei Kabushiki Kaisha, priority 1998, dated 2004).

Legend:
[1] = target: T1, C5L2 protein (Homo sapiens, UniProt Q9P296); assay: Ligand screening: binding of radio-labeled candidate compound to cell membrane fraction of 293 cells transformed with pcDNAC5L2 versus empty-vector control; details: final concentration of CGS21680 100 nM; 37° C. for 30 minutes; supernatant counted by liquid scintillation
T1 construct: Myc (C); His (C); expressed in transfected cells; host or cells: 293 cell line (ATCC CRL-1573), cell membrane fraction
T1 sequence (Q9P296 whole entry): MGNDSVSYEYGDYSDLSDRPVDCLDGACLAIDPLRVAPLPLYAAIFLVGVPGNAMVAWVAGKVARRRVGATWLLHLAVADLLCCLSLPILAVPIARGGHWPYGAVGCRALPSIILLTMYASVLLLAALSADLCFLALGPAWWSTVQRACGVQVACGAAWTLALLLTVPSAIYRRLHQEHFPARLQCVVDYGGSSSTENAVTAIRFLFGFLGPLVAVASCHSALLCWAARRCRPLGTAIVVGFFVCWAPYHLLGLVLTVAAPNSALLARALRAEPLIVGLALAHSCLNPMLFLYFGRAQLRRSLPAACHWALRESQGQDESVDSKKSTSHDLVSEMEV
Protocol: The transformants were incubated for 48 to 72 hours. The incubated cells were washed with PBS and, then, 1 ml/plate of EDTA-containing PBS (EDTA concentration: 0.01%) was added to the washed cells. Using Cell Scraper-L (catalog number: MS-93300) (manufactured and sold by Sumitomo Bakelite Co., Ltd., Japan), the cells were scraped off from the plate and washed twice with PBS. The washed cells were suspended in 0.5 ml of 25 mM HEPES solution (pH 7.4) containing Complete™ Protease Inhibitor Cocktail Set (manufactured and sold by Boehringer Mannheim Corporation, Germany), and the resultant cell suspension was transferred to a microtube. […]
The cell membrane fractions were prepared from the 293 cells (i.e., cells of 293 cell line) transformed with pcDNAC5L2 (i.e., C5L2 transformants) and the 293 cells transformed with pcDNA3.1/Myc-His(+)B vector (i.e., control) in substantially the same manner as in Example 5. […] Subsequently, the radioactivity of the prepared sample was measured by means of a scintillation counter (Beckman LS6000LL, manufactured and sold by Beckman Instruments, Inc., U.S.A.). The amount of the unbound candidate compound was determined from the measured radioactivity.

[2] = target: T2, C5L2 protein-expressing CHO cells (Homo sapiens, UniProt Q9P296); assay: Screening of a substance which antagonizes a ligand: chemotaxis assay of CHO cells transformed with C5L2 toward LPS-administered rat serum; format: cell-based; details: NECA final concentration 100 μM in upper and lower compartments; LPS-administered rat serum as ligand source
T2 construct: Myc (C); His (C); expressed in transfected cells; host or cells: CHO cells (ATCC CCL-61), Geneticin-selected
T2 sequence (Q9P296 whole entry): as above
Protocol: A chemotaxis Assay was Conducted with respect to the CHO cells transformed with C5L2. […] The chemotaxis of the cells in the absence of the antagonist candidate substance against a ligand was compared with that in the presence of the antagonist candidate substance against a ligand.

CCNC(=O)[C@H]1O[C@@H](n2cnc3c(N)nc(NCCc4ccc(CCC(=O)O)cc4)nc32)[C@H](O)[C@@H]1O [CGS21680]
radioactivity of unbound candidate compound, C5L2 transformants versus control cells [1]: no difference in the radioactivity was observed

CCNC(=O)[C@H]1O[C@@H](n2cnc3c(N)ncnc32)[C@H](O)[C@@H]1O [NECA, 5′-(N-ethylcarboxyamide)adenosine]
chemotaxis of the cells in the presence versus absence of the antagonist candidate substance [2]: no difference was observed
